Results published in patent US20240287102A1, “NOVEL CRYSTALLINE FORMS OF [(1R)-2-(1-BENZOFURAN-3-YL)-1-{[(1S,2R,4R)-7-OXABICYCLO[2.2.1]HEPTAN-2-YL]FORMAMIDO}ETHYL]BORONIC ACID, ADDUCTS THEREOF, AND PROCESSES TO OBTAIN” (Merck Patent GmbH, priority 2021, published 2024).
In brackets after ≈: the same amount, converted by molar mass. Like-named read-outs stand apart in the source and are kept apart here.

Key:
[1] = Thermodynamic solubility (24 h) at 37° C.; type: physicochemical; conditions: for solubility thermodynamic at 24 h: 37 °C, thermodynamic from solid
Experimental: Approximately 10-20 mg of 1-(4-{[6-Amino-5-(4-phenoxy-phenyl)-pyrimidin-4-ylamino]-methyl}-4-fluoro-piperidin-1-yl)-propenone was weighed into a 4 mL glass vial. 1 mL of SGF medium (simulated gastric fluid, pH 1.2), FaSSIF medium (fasted state intestinal medium, pH 6.5), or USP Phosphate buffer pH 7.4 was added and the suspension was shaken for 24 h at 450 rpm at 37° C. After 1 hour, 6 hours and after 24 hours, the vials were checked for the presence of undissolved compound and the pH was measured. If necessary, the pH was adjusted after 1 hour and 6 hours. The solid liquid separation was carried out using 1 mL syringe and 0.2 μm syringe filter. Clear filtrate was analyzed by HPlC after suitable dilution to measure the amount of API dissolved.

[2] = Water Vapour Sorption isotherm (25° C., DVS-Intrinsic); type: physicochemical; conditions: for water uptake levels: 25° C.
Experimental: DSC scan of trimeric form A1 was acquired on a Mettler-Toledo DSC 1 with a heating rate of 5 K/min, using nitrogen purge gas at 50 mL/min. TGA scan of trimeric form A1 was acquired on a Mettler-Toledo TGA 851 with a heating rate of 5 K/min, using nitrogen purge gas at 50 mL/min. […] Eur. Criteria (section 5.11.). Water Vapour Sorption isotherm was acquired on a DVS-Intrinsic system from SMS. […] Dissolution level of trimeric form A1 in Simulated Gastric Fluid [SGF, pH 1.2] at 37° C. was determined to be approximately 2.4 mg/mL after 2 h (see example 12).
DSC scan of hydrate form NF2 was acquired on a Mettler-Toledo DSC 1 with a heating rate of 5 K/min, using nitrogen purge gas at 50 mL/min. TGA scan of hydrate form NF2 was acquired on a Mettler-Toledo TGA 851 with a heating rate of 5 K/min, using nitrogen purge gas at 50 mL/min. […] Eur. Criteria (section 5.11.). Water Vapour Sorption isotherm was acquired on a DVS-Intrinsic system from SMS.
In the DSC, a phase transition to trimeric form A1 occurred above 150° C., and the trimeric A1 form has a melting peak onset greater than 220° C. […] DSC scan of the anhydrous form NF9 was acquired on a Mettler-Toledo DSC 1 with a heating rate of 5 K/min, using nitrogen purge gas at 50 mL/min. TGA scan of anhydrous form NF9 was acquired on a Mettler-Toledo TGA 851 with a heating rate of 5 K/min, using nitrogen purge gas at 50 mL/min. […] Eur. Criteria (section 5.11.). […] Water Vapour Sorption isotherm was acquired on a DVS-Intrinsic system from SMS.
This is followed by an exothermic event in the DSC, assigned to a phase transition to trimeric form A1. Finally, the melting of trimeric form A1 with melting peak onset at temperatures greater than 220° C. […] DSC scan of the hydrate of trimeric boronic acid adduct form NF7 was acquired on a Mettler-Toledo DSC 1 with a heating rate of 5 K/min, using nitrogen purge gas at 50 mL/min. TGA scan of the hydrate of trimeric boronic acid adduct form NF7 was acquired on a Mettler-Toledo TGA 851 with a heating rate of 5 K/min, using nitrogen purge gas at 50 mL/min. […] Eur. Criteria (section 5.11.). […]

[3] = biological target: LMP7 subunit of the immunoproteasome (Homo sapiens, UniProt P20618+P28062); conditions: Singh et al, Br. J. Hematology 152(2): 155-163; cited from earlier work

## O=C(N[C@@H](Cc1coc2ccccc12)B(O)O)[C@@H]1C[C@H]2CC[C@@H]1O2 [Form NF2]
[1]; Fasted-State Simulated Intestinal Fluid pH 6.5, 37° C., 24 h
  Thermodynamic solubility FaSSIF pH 6.5: 0.7 mg/mL
[1]; Simulated Gastric Fluid pH 1.2, 37° C., 24 h
  Thermodynamic solubility SGF pH 1.2: 0.7 mg/mL
[1]; fasted-state simulated intestinal fluid (FaSSIF), pH 6.5, fassif, Fasted-State Simulated Intestinal Fluid pH 6.5, 37° C., 24 h, read-out: Thermodynamic solubility FaSSIF pH 6.5
  solubility thermodynamic at 24 h: ~700 µg/mL (≈ 2130 µM)
[1]; listed as Hydrate form NF2
  solubility in biorelevant media (in words): highly soluble in biorelevant media
[1]; listed as hydrate form NF2
  solubility in biorelevant media (in words): good solubility in biorelevant media
[1]; simulated gastric fluid (SGF), pH 1.2, simulated gastric fluid, Simulated Gastric Fluid pH 1.2, 37° C., 24 h, read-out: Thermodynamic solubility SGF pH 1.2
  solubility thermodynamic at 24 h: ~700 µg/mL (≈ 2130 µM)
[2]
  hygroscopicity classification according to Ph. Eur. Criteria (section 5.11.): slightly hygroscopic
[2]; relative humidity range 0-80% rh
  water uptake levels: ≤ 1 % m/m
[2]; relative humidity range 90-98% rh
  water uptake levels: ≤ 5 % m/m

## CC1=C(C(=O)N[C@H](C)C(=O)N[C@@H](Cc2c[nH]c3ccccc23)C(=O)N[C@@H](Cc2ccccc2)C(=O)[C@@]2(C)CO2)Cc2ccccc21 [PR-924]
[3]
  selectivity as inhibitor of the LMP7 subunit: 100 fold
